# Results reported in article PMC11539907, “Cytotoxicity of norstictic acid derivatives, a depsidone from Ramalina anceps Nyl” (Turkish Journal of Chemistry, 2024).
# “Also recorded” adds a separate entry of the source. Where two headings read alike, the source gives them in different places.
# Key:
# [1] = tested on: 786-0 (kidney carcinoma) cells; experiment: sulforhodamine B (SRB) cytotoxicity assay, 786-0; assay type: cell-based; details: for selectivity index (SI): GI50 on 3T3 cells divided by GI50 on 786-0; for GI50: Homo sapiens, 786-0 cells, SRB assay, read-out: growth inhibition (GI50)
# From the text: (§1) MCF7 (ATCC HTB-22, breast adenocarcinoma), 786-0 (ATCC CRL-1932, renal cell adenocarcinoma), PC-03 (ATCC CRL-1435, prostatic adenocarcinoma), HT-29 (ATCCHTB-38, colorectal adenocarcinoma), and HEP2 (ATCC CCL-23, laryngeal carcinoma) cells donated by Dr. João Ernesto de Carvalho (CPQBA – UNICAMP), and NIH/3T3 cells (ATCC CRL-1658, mouse embryonic fibroblast), purchased from the Rio de Janeiro Cell Bank, were used for the evaluation of cytotoxic activity. Cell maintenance and treatment were performed as described by Freshney. The sulforhodamine B (SRB) assay was carried out according to Brandão et al. and Bogo et al..
# (§2) The selectivity index (SI) measures a compound’s ability to target a neoplastic cell line rather than a normal cell line, indicating its potential for use in clinical trials. In the present study, the SI of each substance was calculated as the quotient of its GI50 value for normal NIH/3T3 cells divided by the GI50 value for a neoplastic cell line. SI values greater than 3.0 were considered significant.
# [2] = tested on: HT-29 (colon carcinoma) cells; experiment: sulforhodamine B (SRB) cytotoxicity assay, HT-29; assay type: cell-based; details: for selectivity index (SI): GI50 on 3T3 cells divided by GI50 on HT-29; for GI50: Homo sapiens, HT-29 cells, SRB assay, read-out: growth inhibition (GI50)
# From the text: as §1, §2
# [3] = tested on: MCF7 (breast carcinoma) cells; experiment: sulforhodamine B (SRB) cytotoxicity assay, MCF7; assay type: cell-based; details: for selectivity index (SI): GI50 on 3T3 cells divided by GI50 on MCF7; for GI50: Homo sapiens, MCF7 cells, SRB assay, read-out: growth inhibition (GI50)
# From the text: as §1, §2
# [4] = tested on: NIH/3T3 (mouse embryonic fibroblast) cells; experiment: sulforhodamine B (SRB) cytotoxicity assay, NIH/3T3 normal cells; assay type: cell-based; details: for GI50: Mus musculus, NIH3T3, NIH/3T3 normal cells, SRB assay, read-out: growth inhibition (GI50); for effect on normal cells in words: 3T3 cells
# From the text: as §1, §2
# [5] = tested on: HEP2 (laryngeal carcinoma) cells; experiment: sulforhodamine B (SRB) cytotoxicity assay, HEP2; assay type: cell-based; details: for selectivity index (SI): GI50 on 3T3 cells divided by GI50 on HEP2; for GI50: Homo sapiens, HEp-2, HEP2 cells, SRB assay, read-out: growth inhibition (GI50)
# From the text: as §1, §2
# [6] = tested on: UACC-62 (human melanoma) cells; experiment: sulforhodamine B (SRB) cytotoxicity assay, UACC-62; assay type: cell-based; details: for selectivity index (SI): GI50 on 3T3 cells divided by GI50 on UACC-62; for GI50: Homo sapiens, UACC-62 cells, SRB assay, read-out: growth inhibition (GI50)
# From the text: [Worded in the source for another cell line; this cell line is reported under the same test.] as §1, §2
# [7] = tested on: PC-03 (prostate carcinoma) cells; experiment: sulforhodamine B (SRB) cytotoxicity assay, PC-03; assay type: cell-based; details: for selectivity index (SI): GI50 on 3T3 cells divided by GI50 on PC-03; for GI50: PC-03 cells, SRB assay, read-out: growth inhibition (GI50)
# From the text: as §1, §2
# [8] = tested on: UACC-62 (human melanoma) cells; details: 3T3 vs UACC-62; ref Brandão et al. (2013); cited from earlier work
# [9] = tested on: B16-F10 (murine melanoma) cells; experiment: sulforhodamine B (SRB) cytotoxicity assay, B16-F10; assay type: cell-based; details: for selectivity index (SI): GI50 on 3T3 cells divided by GI50 on B16-F10; for GI50: Mus musculus, B16-F10 cells, SRB assay, read-out: growth inhibition (GI50)
# From the text: [Worded in the source for another cell line; this cell line is reported under the same test.] as §1, §2
# [10] = tested on: tested tumor cells (786-0, MCF7, HT-29, PC-03, HEP2, B16-F10, UACC-62); experiment: sulforhodamine B (SRB) cytotoxicity assay, results stated over several cell lines; assay type: cell-based; details: for cytotoxic activity in words: cell lines as named in the quoted words; for selectivity index (SI), range over all tumor cells: all tested tumor cells vs NIH/3T3
# From the text: as §1, §2
# [11] = all tested tumor cells, read-out: GI50, range over all tumor cells
# [12] = listed as 8′-O-isopropyl-norstictic acid
SMILES,selectivity index (SI) [1],GI50 [1],selectivity index (SI) [2],GI50 [2],selectivity index (SI) [3],GI50 [3],GI50 [4],selectivity index (SI) [5],GI50 [5],selectivity index (SI) [6],GI50 [6],selectivity index (SI) [7],GI50 [7],selectivity index (SI) [9],GI50 [9],cytotoxic activity in words [10],melting point,further results
"COc1cccc2c1C(=O)c1c(O)c3c(c(O)c1C2=O)C[C@@](O)(C(=O)CO)C[C@@H]3O[C@H]1C[C@H](N)[C@H](O)[C@H](C)O1 [Doxorubicin, reference compound]",1.23,0.43 µM,1.23,0.43 µM,6.4,0.086 µM,0.55 µM,0.84,0.65 µM,4.5,0.12 µM,16.0,0.034 µM,1.28,0.43 µM,,,selectivity index (SI) [8]: 1.2
"CCCOC1OC(=O)c2c(O)c(C)c3c(c21)Oc1c(C=O)c(O)cc(C)c1C(=O)O3 (stereo not shown) [compound 2, 8′-O-n-propyl-norstictic acid]",0.43,140 µM,0.13,470 µM,0.15,410 µM,63 µM,0.94,70 µM,1.2,50 µM,2.03,30 µM,,> 600 µM,did not show activity against the tested tumor cells; also recorded: comparatively low activity against the cancerous cell lines,183 °C,selectivity index (SI) ([7]; listed as n-propyl): 33.8; GI50 ([7]; listed as n-propyl): 1.28 µM
"CCCCOC1OC(=O)c2c(O)c(C)c3c(c21)Oc1c(C=O)c(O)cc(C)c1C(=O)O3 (stereo not shown) [compound 3, 8′-O-n-butyl-norstictic acid]",22.21,28.2 µM,16.34,38.3 µM,47.15,13.3 µM,625 µM,78.77,7.94 µM,54.1,11.5 µM,98.11,6.37 µM,13.88,45 µM,,169 °C,"selectivity index (SI), range over all tumor cells [10]: 13.88–98.11; GI50 [10, 11]: 6.37 to 45 µM; effect on normal cells in words [4]: lowest effect on 3T3 cells"
"CCCCCOC1OC(=O)c2c(O)c(C)c3c(c21)Oc1c(C=O)c(O)cc(C)c1C(=O)O3 (stereo not shown) [compound 4, 8′-O-n-pentyl-norstictic acid]",0.75,76.2 µM,1.50,38.2 µM,3.69,15.5 µM,57.2 µM,1.19,48.2 µM,1.51,37.8 µM,6.53,8.77 µM,1.03,55.4 µM,low biological activity,175 °C,
"CCCCCCOC1OC(=O)c2c(O)c(C)c3c(c21)Oc1c(C=O)c(O)cc(C)c1C(=O)O3 (stereo not shown) [compound 5, 8′-O-n-hexyl-norstictic acid]",1.75,31.4 µM,7.66,7.16 µM,5.76,9.53 µM,54.9 µM,9.2,5.96 µM,1.06,51.6 µM,7.60,7.23 µM,0.97,56.3 µM,"showed activity against MCF7, HT-29, PC-03, and HEP2 cells",178 °C,"GI50 ([10]; MCF7, HT-29, PC-03, and HEP2 cells, read-out: GI50, range): 5.96 to 9.53 µM"
"Cc1cc(O)c(C=O)c2c1C(=O)Oc1c(C)c(O)c3c(c1O2)C(OC(C)C)OC3=O (stereo not shown) [compound 6, 8′-O-isopropyl-norstictic acid]",0.86,50.1 µM,0.86,50.2 µM,0.73,59.3 µM,43.2 µM,5.56,7.78 µM,7.0,6.2 µM,33.8,1.28 µM,4.48,9.65 µM,"active against PC-03, HEP2, B16-F10, and UACC-62 cells",185 °C,"selectivity index (SI), range ([10]; PC-03, HEP2, B16-F10, and UACC-62 cells vs NIH/3T3): 4.48 to 33.8; GI50 ([10]; PC-03, HEP2, B16-F10, and UACC-62 cells, read-out: GI50, range): 1.28 to 9.65 µM; selectivity index (SI) [5, 12]: 5.5; selectivity index (SI) [9, 12]: 4.5"
"CCC(C)OC1OC(=O)c2c(O)c(C)c3c(c21)Oc1c(C=O)c(O)cc(C)c1C(=O)O3 (stereo not shown) [compound 7, 8′-O-sec-butyl-norstictic acid]",27.78,21.4 µM,48.3,12.3 µM,87.4,6.8 µM,594 µM,78.0,7.6 µM,20.2,29.4 µM,11.30,52.4 µM,64.4,9.2 µM,,170 °C,"selectivity index (SI), range over all tumor cells [10]: 11.30–87.40; GI50 [10, 11]: 6.8 to 52.4 µM; effect on normal cells in words [4]: lowest effect on 3T3 cells"
"Cc1cc(O)c(C=O)c2c1C(=O)Oc1c(C)c(O)c3c(c1O2)C(OC(C)(C)C)OC3=O (stereo not shown) [compound 8, 8′-O-tert-butyl-norstictic acid]",0.6,63.3 µM,0.28,139 µM,0.6,64.2 µM,38.5 µM,0.66,57.8 µM,0.57,67.1 µM,5.0,7.6 µM,0.42,90.3 µM,active only against PC-03 cells; also recorded: low biological activity,196 °C,
